Experimental data reported in ChEMBL document CHEMBL4325896, “The potential role of tubeimosides in cancer prevention and treatment” (Eur J Med Chem, 2019).
≈ marks a conversion by molar mass, not a printed value.

What was measured:
ECa-109 cell line [1] = test: Antiproliferative activity against human EC109 cells after 24 hrs by MTT assay; type: functional, cell-based; conditions: ECa-109, 24 h
[2] = Half life in Sprague-Dawley rat at 50 mg/kg, po by HPLC-DAD-IT-TOF-MS analysis; type: ADME, organism-based; conditions: in vivo
PC-3 = test: Antiproliferative activity against human PC3 cells after 24 hrs by MTT assay; type: functional, cell-based; conditions: PC-3, 24 h
[3] = Antiproliferative activity against human A2780DDP cells after 48 hrs; type: functional, cell-based
[4] = MRT (0 to infinity) in Sprague-Dawley rat at 50 mg/kg, po by HPLC-DAD-IT-TOF-MS analysis; type: ADME, organism-based; conditions: in vivo
[5] = Antiproliferative activity against human A2780DDP cells after 24 hrs; type: functional, cell-based
HUVEC [6] = test: Antiproliferative activity against HUVEC after 24 hrs; type: functional, cell-based; conditions: Homo sapiens
HepG2 [7] = test: Antiproliferative activity against human HepG2 cells after 24 hrs by MTT assay; type: functional, cell-based; conditions: HepG2, 24 h
JEG-3 = test: Antiproliferative activity against human JEG3 cells after 24 hrs by MTT assay; type: functional, cell-based; conditions: JEG-3, 24 h
[8] = Toxicity in ip dosed ICR mouse; type: organism-based; conditions: in vivo
A549 = test: Antiproliferative activity against human A549 cells after 72 hrs by MTS assay; type: functional, cell-based; conditions: A549, 72 h
HeLa [9] = test: Antiproliferative activity against human HeLa cells after 72 hrs by MTT assay; type: functional, cell-based
[10] = Antiproliferative activity against human A2780DDP cells after 12 hrs; type: functional, cell-based
HeLa [11] = test: Cytotoxicity against human HeLa cells after 24 hrs by MTT assay; type: functional, cell-based
[12] = Elimination half life in ICR mouse at 20 mg/kg, po by UPLC-MS/MS analysis; type: ADME, organism-based; conditions: in vivo, read-out: beta t1/2 (converted)
ECa-109 cell line [13] = test: Antiproliferative activity against human EC109 cells after 48 hrs by MTT assay; type: functional, cell-based; conditions: ECa-109, 48 h
HUVEC [14] = test: Antiproliferative activity against HUVEC after 48 hrs; type: functional, cell-based; conditions: Homo sapiens
[15] = AUC (0 to 24 hrs) in Sprague-Dawley rat at 50 mg/kg, po by HPLC-DAD-IT-TOF-MS analysis; type: ADME, organism-based; design: dose 50 mg/kg, time < 24 hr, route oral; conditions: in vivo
[16] = AUC (0 to infinity) in Sprague-Dawley rat at 50 mg/kg, po by HPLC-DAD-IT-TOF-MS analysis; type: ADME, organism-based; design: dose 50 mg/kg, time infinity, route oral; conditions: in vivo
NCI-H460 [17] = test: Antiproliferative activity against human NCI-H460 cells after 24 hrs by WST-1 assay; type: functional, cell-based; conditions: NCI-H460, 24 h
[18] = Antiproliferative activity against human PGCL3 cells after 24 hrs by MTT assay; type: functional, cell-based
HeLa [19] = test: Antiproliferative activity against human HeLa cells after 24 hrs by MTT assay; type: functional, cell-based
[20] = Oral bioavailability in Sprague-Dawley rat at 50 mg/kg by LC-MS analysis; type: ADME, organism-based; conditions: in vivo
[21] = Cmax in Sprague-Dawley rat at 50 mg/kg, po by HPLC-DAD-IT-TOF-MS analysis; type: ADME, organism-based; design: dose 50 mg/kg, route oral; conditions: in vivo
[22] = Antiproliferative activity against human PGCL3 cells after 48 hrs by MTT assay; type: functional, cell-based
[23] = MRT (0 to 24 hrs) in Sprague-Dawley rat at 50 mg/kg, po by HPLC-DAD-IT-TOF-MS analysis; type: ADME, organism-based; conditions: in vivo
T-24 = test: Antiproliferative activity against human T24 cells after 24 hrs by MTT assay; type: functional, cell-based; conditions: T-24, 24 h
HUVEC [24] = test: Antimigratory activity against HUVEC at 20 umol/L after 24 hrs relative to control; type: functional, Homo sapiens
[25] = Antiproliferative activity against human PGCL3 cells after 72 hrs by MTT assay; type: functional, cell-based
[26] = Cmax in Sprague-Dawley rat at 50 mg/kg, po by LC-MS analysis; type: ADME, organism-based; design: dose 50 mg/kg, route oral; conditions: in vivo
PC-9 = test: Antiproliferative activity against human PC9 cells after 72 hrs by MTS assay; type: functional, cell-based; conditions: PC-9, 72 h
NCI-H1299 = test: Antiproliferative activity against human NCI-H1299 cells after 48 hrs by CCK-8 assay; type: functional, cell-based; conditions: NCI-H1299, 48 h
[27] = Elimination half life in ICR mouse at 5 mg/kg, iv by UPLC-MS/MS analysis; type: ADME, organism-based; conditions: in vivo, read-out: beta t1/2 (converted)
DU-145 = test: Antiproliferative activity against human DU145 cells after 24 hrs by MTT assay; type: functional, cell-based; conditions: DU-145, 24 h
[28] = Tmax in Sprague-Dawley rat at 50 mg/kg, po by LC-MS analysis; type: ADME, organism-based; conditions: in vivo
NCI-H460 [29] = test: Antiproliferative activity against human NCI-H460 cells after 9 hrs by MTT assay; type: functional, cell-based; conditions: NCI-H460, 9 h
[30] = Tmax in Sprague-Dawley rat at 50 mg/kg, po by HPLC-DAD-IT-TOF-MS analysis; type: ADME, organism-based; conditions: in vivo
[31] = Elimination half life in Sprague-Dawley rat at 5 mg/kg, iv by LC-MS analysis; type: ADME, organism-based; conditions: in vivo
HeLa [32] = test: Antiproliferative activity against human HeLa cells after 48 hrs by MTT assay; type: functional, cell-based
[33] = Antiproliferative activity against mouse eEND.2 cells after 24 hrs by WST-1 assay; type: cell-based
SK-OV-3 = test: Antiproliferative activity against human SKOV3 cells after 24 hrs by MTT assay; type: functional, cell-based; conditions: SK-OV-3, 24 h
[34] = Oral bioavailability in ICR mouse at 20 mg/kg by UPLC-MS/MS analysis; type: ADME, organism-based; conditions: in vivo
[35] = Volume of distribution at terminal phase in Sprague-Dawley rat at 5 mg/kg, iv by LC-MS analysis; type: ADME, organism-based; conditions: in vivo
HUVEC [36] = test: Antiproliferative activity against HUVEC after 72 hrs; type: functional, cell-based; conditions: Homo sapiens
HepG2 [37] = test: Antiproliferative activity against human HepG2 cells; type: functional, cell-based

## C[C@@H]1O[C@H]2O[C@H]3[C@@H](OC[C@H](O)[C@@H]3O)OC(=O)[C@]34CCC(C)(C)C[C@H]3C3=CC[C@@H]5[C@@]6(C)C[C@H](O)[C@H](O[C@@H]7O[C@H](CO)[C@@H](O)[C@H](O)[C@H]7O[C@@H]7OC[C@H](OC(=O)C[C@](C)(O)CC(=O)O[C@@H]1[C@@H](O[C@@H]1OC[C@@H](O)[C@H](O)[C@H]1O)[C@H]2O)[C@H](O)[C@H]7O)[C@@](C)(CO)[C@@H]6CC[C@@]5(C)[C@]3(C)CC4
ECa-109 cell line [1]
  IC50: 45 µM
[2]
  t1/2: 4.6 h
PC-3
  IC50: 20 µM
[3]
  IC50: 12 µM
[4]
  MRT inf: 9.16 h
[5]
  IC50: 6 µM
HUVEC [6]
  IC50: 24.2 µM
HepG2 [7]
  IC50: 15.5 to 20 µM
JEG-3
  IC50: 8.5 µM
[8]
  LD50: 18.7 mg/kg
A549
  IC50: 12.3 µM
HeLa [9]
  IC50: 17.1 µM
[10]
  IC50: 3 µM
HeLa [11]
  IC50: 25 µM
[12]
  half-life: 2.3 h
ECa-109 cell line [13]
  IC50: 35 µM
HUVEC [14]
  IC50: 21.4 µM
[15]
  AUC(0-t) at 24 h: 8800 ng·h/mL
[16]
  AUC: 9900 ng·h/mL
NCI-H460 [17]
  IC50: 23.3 µM
[18]
  IC50: 15.7 µM
HeLa [19]
  IC50: 34.8 µM
[20]
  bioavailability: 0.23%
[21]
  Cmax: 1342 ng/mL
[22]
  IC50: 14.2 µM
[23]
  MRT last: 7.02 h
T-24
  IC50: 20 µM
HUVEC [24]
  Activity: 58.4%
[25]
  IC50: 13.3 µM
[26]
  Cmax: 675 ng/mL
PC-9
  IC50: 10.2 µM
NCI-H1299
  IC50: 10 µM
[27]
  half-life: 6.8 h
DU-145
  IC50: 10 µM
[28]
  Tmax: 2.75 h
NCI-H460 [29]
  IC50: 20 µM
[30]
  Tmax: 2.85 h
[31]
  beta t1/2: 6.7 h
HeLa [32]
  IC50: 27.1 µM
[33]
  IC50: 12 µM
SK-OV-3
  IC50: 16 µM
[34]
  bioavailability: 1%
[35]
  Vbeta: 0.106 L/kg
HUVEC [36]
  IC50: 17.9 µM

## C[C@@H]1O[C@H]2O[C@H]3[C@@H](OC[C@H](O)[C@@H]3O)OC(=O)[C@]34CCC(C)(C)C[C@H]3C3=CC[C@@H]5[C@@]6(C)C[C@H](O)[C@H](O[C@@H]7O[C@H](CO)[C@@H](O)[C@H](O)[C@H]7O[C@@H]7OC[C@H](OC(=O)C[C@](C)(O)CC(=O)O[C@@H]1[C@@H](O[C@@H]1OC[C@@H](O)[C@H](O)[C@H]1O)[C@H]2O)[C@H](O)[C@H]7O)[C@@](C)(CO)[C@@H]6CC[C@@]5(C)[C@]3(C)C[C@H]4O
[8]
  LD50: 21 mg/kg
HepG2 [37]
  IC50: 4.05 µg/mL (≈ 3.03 µM)

## C[C@@H]1O[C@H]2O[C@H]3[C@@H](OC[C@H](O)[C@@H]3O)OC(=O)[C@]34CCC(C)(C)C[C@H]3C3=CC[C@@H]5[C@@]6(C)C[C@H](O)[C@H](O[C@@H]7O[C@H](CO)[C@@H](O)[C@H](O)[C@H]7O[C@@H]7O[C@H](COC(=O)C[C@](C)(O)CC(=O)O[C@@H]1[C@@H](O[C@@H]1OC[C@@H](O)[C@H](O)[C@H]1O)[C@H]2O)[C@@H](O)[C@H](O)[C@H]7O)[C@@](C)(CO)[C@@H]6CC[C@@]5(C)[C@]3(C)C[C@H]4O
[8]
  LD50: 15 mg/kg
